Data on 22 compounds can be found in US7132418B2, “Peptidyl heterocyclic ketones useful as tryptase inhibitors” (Ortho-McNeil Pharmaceutical, Inc., priority 1999, dated 2006).

For test [1] the following is noted: compared with placebo, 16 mild asthmatics, nebulized dry powder formulation; cited from earlier work.
A further test addresses T1, human Lung Tryptase.
T1 construct: 1.0 nM human Lung Tryptase
The test is described as follows: Tryptase IC50 method, chromogenic substrate hydrolysis. In kind it is biochemical. As to conditions: 1.0 nM human lung tryptase, 500 μM N-p-Tosyl-GLY-PRO-LYS-pNA, 37° C. How it is done:
(§1) The enzyme reaction is started by the addition of enzyme ([E]: 1.0 nM human Lung Tryptase; Cortex Biochem CP3033). Data is collected over a period of 30 min. and the initial rate of substrate hydrolysis (Vo (mOD/min)) is calculated. Inhibition is calculated by comparing to wells containing no inhibitor (vehicle) and IC50s are determined using a four parameter fit logistics model. • Trypsin IC50 Method: Inhibition of trypsin-catalyzed hydrolysis rates were measured using the same method as the tryptase procedure. Bovine type 1 trypsin (Sigma) and Spectrozyme® TRY (Cbo-Gly-D-Ala-Arg-pNA.AcOH, American Diagnostics) replaced their tryptase equivalents at concentrations of 3.2 U/ml trypsin and 1.0 mM Spectrozyme® TRY.

Another test deals with T2, Bovine type 1 trypsin (Bos taurus, UniProt P00760).
T2 construct: purchased Sigma
T2 sequence (P00760 24-246): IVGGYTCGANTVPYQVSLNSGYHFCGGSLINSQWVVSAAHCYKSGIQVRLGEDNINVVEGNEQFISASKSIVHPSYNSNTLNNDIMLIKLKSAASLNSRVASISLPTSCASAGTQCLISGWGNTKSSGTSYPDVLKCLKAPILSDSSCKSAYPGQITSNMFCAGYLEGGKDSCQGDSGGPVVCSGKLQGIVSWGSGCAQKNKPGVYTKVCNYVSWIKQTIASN
The test is described as follows: Trypsin IC50 method, chromogenic substrate hydrolysis. The test is classed as biochemical. The note with it: 3.2 U/ml bovine type 1 trypsin, 1.0 mM Spectrozyme TRY. How it is done:
as §1

The subject of the next test is trypsin. The note with it: pancreatic agents, comparison values; cited from earlier work.

By IC50 is commonly meant the midpoint of a concentration-inhibition curve.

As for `NC(=O)[C@@H]1CCCN1C(=O)[C@H](CCCN=C(N)N)NC(=O)c1ccc2ccccc2c1O` [APC-366], in test [1], the “improvement for the late airway response” value was 33% and the “mean maximum decrease of forced expiratory volume in one second for late airway hyperresponsiveness” value is 21%.

With `CC(=O)N[C@H]1CCC[C@H]1C(=O)NC(CCCNC(=N)N)C(=O)c1nc2ccccc2s1` (stereo partly drawn) [Compound 3, cis-2-Acetylamino-N-[(1S)-4-[(aminoiminomethyl)amino]-1-(2-benzothiazolylcarbonyl)butyl]-1-cyclopentanecarboxamide], the IC50 at human Lung Tryptase came to 1700 ± 700 nM; against Bovine type 1 trypsin it was 360 ± 30 nM.

As for `CS(=O)(=O)N1C[C@H](O)C[C@H]1C(=O)NC(CCCNC(=N)N)C(=O)c1nc2ccccc2s1` (stereo partly drawn) [Compound 5, (2S,4R)-N-[4-[(aminoiminomethyl)amino]-1-(2-benzothiazolylcarbonyl)butyl]-4-hydroxy-1-methanesulfonyl-2-pyrrolidinecarboxamide], the values for the IC50 against human Lung Tryptase and on Bovine type 1 trypsin were 100 ± 10 nM and 210 nM, respectively.

In the case of `CS(=O)(=O)N1CCC[C@H]1C(=O)NC(CCCNC(=N)N)C(=O)c1nc2ccccc2s1` (stereo partly drawn) [Compound 6, (2S)-N-[4-[(aminoiminomethyl)amino]-1-(2-benzothiazolylcarbonyl)butyl]-1-methanesulfonyl-2-pyrrolidinecarboxamide], the half-maximal inhibitory concentration (IC50) came to 140 ± 80 nM on human Lung Tryptase and 110 nM against Bovine type 1 trypsin.

Take `Cc1ccc(S(=O)(=O)N2CCC[C@H]2C(=O)NC(CCCNC(=N)N)C(=O)c2nc3ccccc3s2)cc1` (stereo partly drawn) [Compound 7, (2S)-N-[4-[(Aminoiminomethyl)amino]-1-(2-benzothiazolylcarbonyl)butyl]-1-[(4-methylphenyl)sulfonyl]-2-pyrrolidinecarboxamide]: the 50% inhibitory concentration (IC50) against human Lung Tryptase came out at 1400 ± 800 nM; on Bovine type 1 trypsin it was 230 ± 110 nM.

For `CC(=O)N1C[C@H]2C[C@H]2C1C(=O)NC(CCCNC(=N)N)C(=O)c1nc2ccccc2s1` (stereo partly drawn) [Compound 8, (2S)-trans-3-Acetyl-N-[4-[(aminoiminomethyl)amino]-1-(2-benzothiazolylcarbonyl)butyl]-3-azabicyclo(3.1.0)hexane-2-carboxamide], the figures for the IC50 on human Lung Tryptase and on Bovine type 1 trypsin were 110 ± 40 nM and 190 nM, respectively.

As to `COC(=O)N1CCC[C@H]1C(=O)NC(CCCNC(=N)N)C(=O)c1nc2ccccc2s1` (stereo partly drawn) [Compound 11, (2S)-N-[4-[(Aminoiminomethyl)amino]-1-(2-benzothiazolylcarbonyl)butyl]-1,2-pyrrolidinedicarboxamide, 1-methyl ester], the half-maximal inhibitory concentration (IC50) against human Lung Tryptase was determined as 2400 ± 900 nM; on Bovine type 1 trypsin, 39 nM.

Take `N=C(N)NCCCC(NC(=O)C1CCCCC1C(N)=O)C(=O)c1nc2ccccc2s1` (stereo not drawn) [Compound 16, N-[4-[(Aminoiminomethyl)amino]-1-(2-benzothiazolylcarbonyl)butyl]-1,2-cyclohexanedicarboxamide]: the IC50 stood at 180 ± 70 nM on human Lung Tryptase and 160 nM on Bovine type 1 trypsin.

On to `CC(=O)NC1CCC(C(=O)NC(CCCNC(=N)N)C(=O)c2nc3ccccc3s2)CC1` (stereo not drawn) [Compound 17, 4-Acetamido-N-[4-[(aminoiminomethyl)amino]-1-(2-benzothiazolylcarbonyl)butyl]-cyclohexanecarboxamide], for which the figures for the IC50 at human Lung Tryptase and against Bovine type 1 trypsin were 9400 ± 5700 nM and 2400 nM, respectively.

In the case of `CC(=O)N[C@H]1CCCN(CC(=O)NC(CCCNC(=N)N)C(=O)c2nc3ccccc3s2)C1=O` (stereo partly drawn) [Compound 19, (S)-3-Acetamido-N-[4-[(aminoiminomethyl)amino]-1-(2-benzothiazolylcarbonyl)butyl]-2oxo-1-piperidineacetamide], the 50% inhibitory concentration (IC50) against human Lung Tryptase came to 12000 ± 5000 nM; against Bovine type 1 trypsin it was 320 nM.

Turning to `N=C(N)NCCCC(NC(=O)CCC(N)=O)C(=O)c1nc2ccccc2s1` (stereo not drawn) [Compound 23, N-[4-[(Aminoiminomethyl)amino]-1-(2-benzothiazolylcarbonyl)butyl]butanediamide], the results for the IC50 on human Lung Tryptase and on Bovine type 1 trypsin were 260 ± 10 nM and 93 ± 68 nM, respectively.

In the case of `CCCC(CCC)C(=O)N[C@@H](CC(=O)OC)C(=O)N1CCC[C@H]1C(=O)N[C@@H](CCCNC(=N)N)C(=O)c1nc2ccccc2s1` [Compound 26, N-(1-Oxo-2-propylpentyl)-L-α-aspartyl-N-[4-[(aminoiminomethyl)amino]-1-(2-benzothiazolylcarbonyl)butyl]-L-prolinamide, methyl ester], the IC50 was 110 ± 10 nM on human Lung Tryptase and 48 ± 1 nM on Bovine type 1 trypsin.

Take `N=C(N)NCCC[C@H](NC(=O)[C@@H]1CCCN1C(=O)[C@@H](CC1CCCCC1)NCC(=O)O)C(=O)c1nc2ccccc2s1` [Compound 27, N-(Carboxymethyl)-3-cyclohexyl-D-alanyl-N-[(1S)-4-[(aminoiminomethyl)amino]-1-(2-benzothiazolylcarbonyl)butyl]-L-prolinamide]: the values for the 50% inhibitory concentration (IC50) at human Lung Tryptase and against Bovine type 1 trypsin were 34 ± 3 nM and 36 ± 1 nM, respectively.

Consider `N=C(N)NCCC[C@H](NC(=O)CN1CCCC[C@H](NS(=O)(=O)Cc2ccccc2)C1=O)C(=O)c1nc2ccccc2s1` [Compound 28, (3S)N-[(1S)-4-[(Aminoiminomethyl)amino]-1-(2-benzothiazolylcarbonyl)butyl]hexahydro-2-oxo-3-[[(phenylmethyl)sulfonyl]amino]-1H-azepine-1-acetamide], for which the IC50 against human Lung Tryptase worked out at 100 ± 40 nM; against Bovine type 1 trypsin, 42 ± 1 nM.

In the case of `N=C(N)NCCC[C@H](NC(=O)[C@@H]1CCCN1C(=O)[C@H](CO)NS(=O)(=O)c1cccc2ccccc12)C(=O)c1nc2ccccc2s1` [Compound 29], the IC50 at human Lung Tryptase is 14 ± 5 nM; at Bovine type 1 trypsin, 58 ± 12 nM.

Consider `CN[C@H](Cc1ccccc1)C(=O)N1CCC[C@H]1C(=O)N[C@@H](CC1CCCN(C(=N)N)C1)C(=O)c1nc2ccccc2s1` (stereo partly drawn) [Compound 30, N-Methyl-D-phenylalanyl-N-[(2S)-[1-(aminoiminomethyl)-3-piperidinyl]-1-(2-benzothiazolylcarbonyl)ethyl]-L-prolinamide], for which the IC50 on human Lung Tryptase was determined as 36 ± 4 nM; on Bovine type 1 trypsin it was 110 ± 70 nM.

For the compound `CN[C@H](Cc1ccccc1)C(=O)N1CCC[C@H]1C(=O)N[C@@H](Cc1cccc(C(=N)N)c1)C(=O)c1nc2ccccc2s1` [Compound 31, (S)—N-methyl-D-phenylalanyl-N-[1-[[3-(aminoiminomethyl)phenyl]methyl]-2-(2-benzothiazolyl)-2-oxoethyl]-L-prolinamide], the IC50 against human Lung Tryptase came out at 290 ± 30 nM; at Bovine type 1 trypsin, 240 nM.

Take `CC(=O)N[C@@H](CC1CCCCC1)C(=O)NC(CCCNC(=N)N)C(=O)c1nc2ccccc2s1` (stereo partly drawn) [Compound 32]: the IC50 was 440 nM on human Lung Tryptase and 17 nM against Bovine type 1 trypsin.

Take `CC(=O)N[C@H](C(=O)NC(CCCNC(=N)N)C(=O)c1nc2ccccc2s1)C(C)C` (stereo partly drawn) [Compound 33]: the IC50 at human Lung Tryptase stood at 180 ± 10 nM; against Bovine type 1 trypsin, 19 nM.

For `N=C(N)NCCCC(NC(=O)[C@@H]1CCCN1C(=O)c1ccccc1)C(=O)c1nc2ccccc2s1` (stereo partly drawn) [Compound 34], the figures for the IC50 at human Lung Tryptase and on Bovine type 1 trypsin were 340 nM and 46 nM, respectively.

For `CN(C)C(=O)COC(=O)Cc1ccc(OC(=O)c2ccc(NC(=N)N)cc2)cc1` [camostat mesilate], the IC50 in the test on trypsin is 10 nM.

Regarding `N=C(N)c1ccc2cc(OC(=O)c3ccc(N=C(N)N)cc3)ccc2c1` [nafamostat], in the test with trypsin, the 50% inhibitory concentration (IC50) was 13 nM.
